Values quoted from earlier work as cited in US7208285B2 (priority 2001, dated 2007).

Target: BoNT/A (Clostridium botulinum, UniProt P0DPI1)
Sequence (P0DPI1 whole entry, looked up): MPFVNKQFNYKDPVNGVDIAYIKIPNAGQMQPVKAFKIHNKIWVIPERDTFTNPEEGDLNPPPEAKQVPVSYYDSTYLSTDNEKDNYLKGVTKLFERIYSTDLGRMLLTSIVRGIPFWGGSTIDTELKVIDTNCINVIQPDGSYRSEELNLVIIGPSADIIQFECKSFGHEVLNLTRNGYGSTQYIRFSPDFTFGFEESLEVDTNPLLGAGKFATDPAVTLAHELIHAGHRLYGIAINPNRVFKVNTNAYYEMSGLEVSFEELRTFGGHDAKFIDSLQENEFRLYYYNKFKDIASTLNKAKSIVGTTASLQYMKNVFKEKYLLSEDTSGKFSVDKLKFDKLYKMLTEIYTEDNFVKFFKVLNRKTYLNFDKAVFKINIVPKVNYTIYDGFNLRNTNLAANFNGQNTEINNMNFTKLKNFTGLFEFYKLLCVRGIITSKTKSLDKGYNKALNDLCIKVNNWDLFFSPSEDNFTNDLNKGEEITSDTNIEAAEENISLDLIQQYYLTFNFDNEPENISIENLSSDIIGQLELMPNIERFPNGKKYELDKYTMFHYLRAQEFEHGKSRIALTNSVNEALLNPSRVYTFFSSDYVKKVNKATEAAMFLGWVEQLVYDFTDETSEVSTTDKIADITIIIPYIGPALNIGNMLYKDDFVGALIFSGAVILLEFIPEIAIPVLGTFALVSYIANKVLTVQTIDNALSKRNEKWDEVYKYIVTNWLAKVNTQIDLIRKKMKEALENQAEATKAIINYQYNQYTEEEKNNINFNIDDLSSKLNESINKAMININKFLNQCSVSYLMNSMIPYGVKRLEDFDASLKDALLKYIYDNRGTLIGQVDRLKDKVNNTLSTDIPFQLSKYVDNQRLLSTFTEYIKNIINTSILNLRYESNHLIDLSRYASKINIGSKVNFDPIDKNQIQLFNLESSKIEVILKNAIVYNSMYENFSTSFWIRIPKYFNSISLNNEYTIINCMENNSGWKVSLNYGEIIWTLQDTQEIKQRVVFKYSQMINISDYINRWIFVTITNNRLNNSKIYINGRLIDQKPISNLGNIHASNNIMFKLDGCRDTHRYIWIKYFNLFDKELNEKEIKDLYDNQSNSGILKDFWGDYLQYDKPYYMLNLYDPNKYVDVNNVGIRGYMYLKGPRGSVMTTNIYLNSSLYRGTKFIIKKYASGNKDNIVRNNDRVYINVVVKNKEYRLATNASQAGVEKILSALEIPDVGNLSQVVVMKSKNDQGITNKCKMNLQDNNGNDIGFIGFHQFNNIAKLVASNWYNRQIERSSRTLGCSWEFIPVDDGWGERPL

| Sequence | Relative Rate | relative rate of proteolysis |
| --- | --- | --- |
| SNKTRIDEANQRASKML [Peptide T14S] | 0.26 | 0.26 |
| SNKTRIDEANBRATKML [Peptide Q11B] | 0.25 | 0.25 |
| SNKTRTDEANQRATKM [[1–16]] | 1.17 |  |
| SNKTRIDQANQRATKML [Peptide E8Q] | 2.08 | 2.08 |
| SNKTRIDEANQRATKAL [Peptide M16A] | 0.38 | 0.38 |
| SNKTRINEANQRATKML [Peptide D7N] | 0.23 | 0.23 |
| SNKTRIDEANNRATKML [Peptide Q11N] | 0.66 | 0.66 |
| SNKTRIDEANARATKML [Peptide Q11A] | 0.19 | 0.19 |
| SNKTRIDEANQRABKML [Peptide T14B] | 1.20 | 1.20 |
| SNKTRIDEAAQRATKML [Peptide N10A] | 0.06 |  |
| SNKTRIDEBNQRATKML [Peptide A9B] | 0.38 | 0.38 |
| SNKTRIDEANQRATKXL [Peptide M16X] | 1.20 | 1.20 |
| SNKTRIDEANQRATK [[1–15]] | 0.03 |  |
| SNKTRIDEANQRATKML [[1–17]] | 1.00 |  |
| SNKTRIDEANQRBTKML [Peptide A13B] | 0.79 | 0.79 |
| SNKTRIDEANQRATAML [Peptide K15A] | 0.12 | 0.12 |
